The values that follow come from patent US10011874B2, “Androgen receptor mutation” (NOVARTIS AG, priority 2013, dated 2018).

In series [1] the test system is strongly resistant LNCaP clones #1, 15, 19, 24 (AR F877L/T878A). Put plainly: Short-term CellTiter-Glo growth assay, strongly resistant LNCaP clones. To be noted: for growth sensitivity compared with bicalutamide: strongly resistant clones, FIG. 6B. The series is classed as cell-based. How it is done: (§1) Cells were re-seeded into 150 cm^2 dishes supplemented with the appropriate treatments once each week. Media and compound was replaced for dish 4 once every week. Once resistant clones emerged, media was aspirated from dish 4. […] Cells from control dishes 1-3 were maintained until resistant clones were cryopreserved to maintain a constant culture time for control and experimental lines.
(§2) 1000 cells (spontaneous resistant or engineered lines) were seeded in media supplemented with 10% FCS. For spontaneous resistant clones, increasing concentrations of compounds were added on the day of seeding whereas for engineered lines, compounds were added after 2 d of doxycycline treatment. In all cases growth assays were performed using CellTiter-Glo Luminescent Cell Viability Assay Reagent (Promega, cat# G7573) 7 d following compound treatment.
Background: In ATP-based viability assays light output follows the ATP content of the culture.

In series [2] the test system is LNCaP lines engineered to express AR-F877L/T878A. Put plainly: Long-term colony formation assay, LNCaP expressing AR-F877L/T878A. To be noted: for growth sensitivity compared with bicalutamide: AR-F877L/T878A LNCaP lines, FIG. 6C colony formation. The series is classed as cell-based. As for the experimental part:
(§3) Codon-optimized cDNAs encoding WT or mutant ARs were synthesized (DNA2.0) and subcloned into the pLKO-TREX-HA-Neo (Invitrogen). […] Virus was harvested 2-3 d after transfection, filtered, and used to infect LNCaP, MyC-CaP and VCaP cell cultures in the presence of 8 μg ml-1 polybrene. Infected cells were maintained in neomycin for 3 weeks. In all cases, at least 1000 independent clones were pooled to generate stable cell lines to avoid clonal variations. Stable cell lines infected with control vectors were generated in parallel for use as experimental controls.
(§4) 5000-7500 cells (spontaneous resistant or engineered lines) were seeded in 6-well plates in media supplemented with 10% FCS. […] Viable colonies were stained after 3-4 week cultures. Following media aspiration, 0.5% crystal violet was added to the wells and left overnight. The next morning, crystal violet solution was removed and wells were carefully washed with ddH2O to remove residual staining solution. The plates were air-dried overnight prior to imaging.

The test system of series [3] is AR target genes KLK3, NKX3-1 and SLC45A3 in strongly resistant clones. Put plainly: qPCR of AR target genes in strongly resistant clones. The series is classed as cell-based. To be noted: 24 h. How it is done:
(§5) For spontaneous clones: 200 k cells were seeded in 6 well plates in RPMI 1640 supplemented with 10% FCS for 2 d prior to treatment with various compounds for 24 h. Alternatively, for experiments involving androgen-depletion, 200 k cells were seeded and grown in 6 well plates in phenol-free RPMI 1640 supplemented with 10% FCS for 2 d. […] Similar protocols were applied for genetically engineered lines except that cells were pretreated with Dox for at least 2 d prior to treatment with various compounds to allow sufficient transgene expression. Total RNA was extracted using the RNeasy plus mini kit (Qiagen, cat#74136) according to the manufacturer's instructions. 1-2 μg of total RNA was used for cDNA synthesis using a high capacity cDNA reverse transcription kit (Applied Biosystems, cat#4368813). cDNA from each sample was diluted 15-20 fold and real-time was performed in triplicates using gene-specific primers and FastStart Universal Probe Master Mix (Rox) (Roche Applied Science) on an ABI 7900HT series PCR machine. Expression levels were normalized to TBP expression. All analysis was performed using the SDS2.3 software. The following gene-specific primers (Invitrogen) were used: AR (Hs00171172_m1), KLK3 (Hs02576345_m1), NKX3-1 (Hs00171834_m1), TMPRSS2 (Hs01120965_m1), SLC45A3 (Hs00263832_m1), TBP (Hs00427620_m1), DHFR (Hs00758822_s1) and TK1 (Hs01062125_m1).
Background: In qPCR the cycle at which signal appears reflects the starting amount.

The subject of series [4] is AR localization in control (C1) LNCaP line. Kind of series: Nuclear/cytoplasmic fractionation of AR, control line C1. The series is classed as cell-based. As to conditions: 10 μM, 24 h.
Protocol: (§7) The next day, cells were harvested with trypsin, centrifuged at 500×g for 5 min, washed with PBS, transferred to 1.5 ml microcentrifuge tubes and pelleted by centrifugation at 500×g for 2-3 min. […] Briefly, the pellet was resuspended in 500 μl of ice-cold Cer I buffer and incubated on ice for 10 min. Following incubation, 27.5 μl of ice-cold Cer II buffer was added, vortexed and incubated for 1 min on ice. The lysate/Cer I/II mixture was vortexed again, centrifuged at 14000×g for 5 min and the cytoplasmic extract (supernatant) was transferred to pre-chilled tubes. The insoluble pellet, which contains nuclei, was resuspended in ice-cold 250 μl NER buffer, vortexed and placed on ice. Sample was vortexed for 15 s every 10 min for a total of 40 min. Following incubation, samples were centrifuged at 14000×g for 10 min. Supernatant, which contains the nuclear extract, was transferred to pre-chilled tubes. These samples were processed for immunoblot analysis as described above.
The subject of series [5] is AR localization in strongly resistant clone #1. Kind of series: Nuclear/cytoplasmic fractionation of AR, strongly resistant clone #1. The series is classed as cell-based. As to conditions: 10 μM, 24 h.
Protocol: as §7
Series [6] has as its system LNCaP control (C1) tumors. Kind of series: In vivo tumorigenesis assay, control C1 xenografts. Further details: species or system castrated male nu/nu mice. As for the experimental part: 10 million LNCaP cells (C1, clone #1) mixed 1:1 with matrigel were injected subcutaneously into the flank of castrated 7-8 week male nu/nu mice. […]. Tumors were measured using calipers and tumor volumes were calculated using length×width/2. Data is expressed as mean±SEM. All animal experiments were performed in compliance with the guidelines of Novartis Biomedical Research Animal Care and Use Committee protocols and regulations.

Series [7] concerns E2F1 target genes DHFR and TK1 in control line. Kind of series: qPCR of E2F1 target genes in control line. The series is classed as cell-based. As to conditions: 10 μM, 24 h. As for the experimental part: as §5
Series [8] relates to AR pathway activity in control and weakly resistant lines. Put plainly: Microarray clustering and GSEA of AR pathway activity, control and weakly resistant lines. To be noted: 10 μM, 24 h. The series is classed as cell-based. How it is done: (§6) Total RNA was isolated from cells using the Qiagen RNeasy Kit. RNA integrity and purity were assessed with the RNA 6000 Nano LabChip system on a Bioanalyzer 2100 (Agilent Technologies). Generation of labeled cDNA and hybridization to Affymetrix GeneChip Human Genome U133 Plus 2.0 Array (Affymetrix Inc.) was performed using standard protocols as previously described (8). Probesets from the Affymetrix gene expression datasets were normalized using MASS with a trimmed-mean target of 150, and log 2-transformed. Probesets were then filtered for inclusion only if their maximum value over different samples was at least 5. […] This regression was used to generate nominal p-values and regression coeffecients (i.e. fold-changes).

For series [9], the system named is AR pathway activity in strongly resistant clones. Kind of series: Microarray clustering and GSEA of AR pathway activity, strongly resistant clones. The series is classed as cell-based. To be noted: 10 μM, 24 h. How it is done: as §6
A further series deals with LNCaP cells. Kind of series: Culture of LNCaP cells with MDV3100. To be noted: short-term culture (<1.5 months); FCS+MDV relative to FCS. The series is classed as cell-based. As for the experimental part: 2 million LNCaP cells were seeded into four 150 cm^2 tissue culture dishes in phenol red-free RPMI 1640 media supplemented with 10% FCS. […] Cells were re-seeded into 150 cm^2 dishes supplemented with the appropriate treatments once each week. Media and compound was replaced for dish 4 once every week. Once resistant clones emerged, media was aspirated from dish 4. […] Cells from control dishes 1-3 were maintained until resistant clones were cryopreserved to maintain a constant culture time for control and experimental lines.

For series [10] the following is noted: randomized clinical trial; cited from earlier work.
In a further series the test system is CYP3A4. As to conditions: in humans; cited from earlier work.
For another series, the system named is CYP2C9. As to conditions: in humans; cited from earlier work.
The next series relates to CYP2C19. As to conditions: in humans; cited from earlier work.
The subject of series [11] is LNCaP cells, controls (C1-C3). Put plainly: cells. As to conditions: Homo sapiens, read-out: aggregate IC50, growth inhibition. As for the experimental part:
as §1, §2

In series [12] the test system is weakly resistant LNCaP clones #9, 10 and 14. Kind of series: Short-term CellTiter-Glo growth assay, weakly resistant LNCaP clones. The series is classed as cell-based. As to conditions: Homo sapiens, read-out: aggregate IC50, growth inhibition. As for the experimental part:
as §1, §2

In series [13] the test system is W742C/T878A mutant AR (KLK3 expression). The series is classed as cell-based. How it is done: as §3
In series [14] the test system is LNCaP lines engineered to express W742C/T878A AR. As for the experimental part: as §3, §4
Series [15] deals with W742L and W742C mutant ARs. Kind of series: AR luciferase reporter transactivation assay, W742 mutants. The series is classed as cell-based, human. To be noted: 10 μM, FIG. 12. (A reporter such as luciferase makes a cellular process visible.)
Protocol: Reporter assays were performed as follows: 3×10^5 HEK293T cells were seeded in 6-well plates in DMEM supplemented with 10% FCS and 1×NEAA 24 h prior to transfection. Alternatively, 1×10^6 VCaP cells or 3×10^5 PC3 cells were seeded in 6-well plates in appropriate media supplemented with 10% CSS 24 h prior to transfection. […] Cells were collected ˜16 h following treatment and assayed for luciferase activity using the Glomax 96 microplate luminometer (Promega). Firefly activity was normalized to Renilla using the Dual Luciferase Assay reagent (Promega, E1910). All experiments were performed at least three times.
Series [16] relates to T878A-bearing mutant alleles of AR (KLK3 expression). Kind of series: qPCR of KLK3 in LNCaP engineered to express T878A-bearing mutant ARs. The series is classed as cell-based. To be noted: 10 μM; 10% FCS; FIG. 15. How it is done:
[…]. […] Infected cells were maintained in neomycin for 3 weeks.
as §5, with “The following gene-specific primers (Invitrogen) were used: AR (Hs00171172_m1), KLK3 (Hs02576345_m1), NKX3-1 (Hs00171834_m1), TMPRSS2 (Hs01120965_m1), SLC45A3 (Hs00263832_m1), TBP (Hs00427620_m1), DHFR (Hs00758822_s1) and TK1 (Hs01062125_m1).” left out

With `CN(C)C(=O)c1cc2cnc(Nc3ccc(N4CCNCC4)cn3)nc2n1C1CCCC1` [LEE011, 7-Cyclopentyl-2-(5-piperazin-1-yl-pyridin-2-ylamino)-7H-pyrrolo[2,3-d]pyrimidine-6-carboxylic acid dimethylamide], the “growth sensitivity compared with bicalutamide” value in series [1] and in [2] was “as sensitive” each time.
As to `CNC(=O)c1ccc(N2C(=S)N(c3ccc(C#N)c(C(F)(F)F)c3)C(=O)C2(C)C)cc1F` [MDV3100, 4-{3-[4-cyano-3-(trifluoromethyl)phenyl]-5,5-dimethyl-4-oxo-2-sulfanylideneimidazolidin-1-yl}-2-fluoro-N-methylbenzamide], the “effect on expression of AR target genes KLK3, NKX3-1 and SLC45A3” value in [3] (10 μM, 10% FCS, FIG. 2c) is listed as “blunted effects”. The KLK3 expression entry in series [3] (media stripped of androgens (10% CSS), alone or with agonist) was “significantly enhanced KLK3 expression”. The “nuclear AR localization” value was “significantly impaired” in series [4] and “not significantly altered” in series [5]. In [6] (control 1 xenograft mice, 30 mg/kg daily), the “body weight during treatment period” value is listed as “No significant body weight loss”. Also, in series [6] (control C1 tumors, 30 mg/kg daily), the “tumor growth under treatment” value was “immediate stasis”. Further, in series [6] (control cells C1, 9 of 15 vs. 10 of 15), the “tumor take rates, treated vs. vehicle” value is “indistinguishable”. In series [7], the “expression of E2F1 target genes DHFR and TK1” value is “suppressed expression”. For the same compound, the figures for the “AR pathway activity upon treatment” value in [8] and in series [9] were “reduced AR pathway activity” and “insignificant change”, respectively. In addition, the “effect of short-term culture on cell population” value in the series with LNCaP cells is recorded as “population-wide stasis”. The “incidence of most common adverse drug reactions (asthenia/fatigue, back pain, diarrhea, arthralgia, hot flush etc.)” value in series [10] is at least 5%. Also, in the series with CYP3A4, the CYP3A4 induction result was “strong”. The CYP2C9 induction result with CYP2C9 is reported as “moderate”. For the same compound, the CYP2C19 induction result with CYP2C19 is on record as “moderate”.
For `CC(=O)c1c(C)c2cnc(Nc3ccc(N4CCNCC4)cn3)nc2n(C2CCCC2)c1=O` [PD0332991], the “growth sensitivity compared with bicalutamide” value in [1] and in series [2] was “as sensitive” throughout.
Regarding `CC(O)(CS(=O)(=O)c1ccc(F)cc1)C(=O)Nc1ccc(C#N)c(C(F)(F)F)c1` (stereo not drawn) [bicalutamide, N-[4-cyano-3-(trifluoromethyl)phenyl]-3-[(4-fluorophenyl)sulfonyl]-2-hydroxy-2-methylpropanamide], the IC50 was 1 µM in [11]; 5 µM in [1] (Homo sapiens, LNCaP, read-out: aggregate IC50, growth inhibition); above 10 µM in [12]. The “agonist/antagonist behaviour on KLK3 expression” value in series [13] was “antagonist-to-agonist switch”. Besides, the “growth under treatment on expression of F877L/T878A allele” value in [2] is given as “remained sensitive”. Besides, in [14], the “growth under treatment on expression of W742C/T878A allele” value was “significantly rescued growth”. Moreover, the “agonist/antagonist behaviour in AR reporter assay” value in series [15] is reported as “antagonist-to-agonist switch”.
In the case of `CC(C)(O)C(=O)Nc1ccc([N+](=O)[O-])c(C(F)(F)F)c1` [hydroxyflutamide], the “agonist/antagonist behaviour on KLK3 expression” value in series [16] is “antagonist-to-agonist switch”.

What is called IC50 is the concentration that inhibits the measured activity by half.
